Source: PubChem BioAssay AID1963958 (Molecular Pharmacology Branch, DTP, NCI, 2024)

Test system: MDA-MB-231 multicell spheroids, viability
Assay: Anticancer human tumor MDA-MB-231 cell line growth inhibition [PI3K];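 note: spheroids exposed to agents for seven days before reading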;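 for viability, T/C: percent of vehicle control luminescence with DMSO treated spheroids as 100%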
Settings: for IC50: curve of first compound; for viability, T/C: stronger effect = lower value
Procedure, shortened: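 Multi-cell spheroids combine tumor cells with HUVEC and human MSCs, treated with targeted agents alone or with inavolisib, alpelisib, duvelisib or copanlisib. Concentrations fall in half-log steps from at or near clinical Cmax, or from 10 microM where Cmax is unknown; viability read-out.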

[1] = second compound 0.00316 µM, first compound 0.0316 µM
[2] = second compound 0.00316 µM, first compound 0.1 µM
[3] = second compound 0.00316 µM, first compound 0.316 µM
[4] = second compound 0.00316 µM, first compound 1 µM
[5] = second compound 0.01 µM, first compound 0.0316 µM
[6] = second compound 0.01 µM, first compound 0.1 µM
[7] = second compound 0.01 µM, first compound 0.316 µM
[8] = second compound 0.01 µM, first compound 1 µM
[9] = second compound 0.0316 µM, first compound 0.0316 µM
[10] = second compound 0.0316 µM, first compound 0.1 µM
[11] = second compound 0.0316 µM, first compound 0.316 µM
[12] = second compound 0.0316 µM, first compound 1 µM
[13] = second compound 0.1 µM, first compound 0.0316 µM
[14] = second compound 0.1 µM, first compound 0.1 µM
[15] = second compound 0.1 µM, first compound 0.316 µM
[16] = second compound 0.1 µM, first compound 1 µM
[17] = second compound 0.316 µM, first compound 0.0316 µM
[18] = second compound 0.316 µM, first compound 0.1 µM
[19] = second compound 0.316 µM, first compound 0.316 µM
[20] = second compound 0.316 µM, first compound 1 µM
[21] = second compound 1 µM, first compound 0.0316 µM
[22] = second compound 1 µM, first compound 0.1 µM
[23] = second compound 1 µM, first compound 0.316 µM
[24] = second compound 1 µM, first compound 1 µM
[25] = second compound 0.00316 µM, first compound 0.00316 µM
[26] = second compound 0.00316 µM, first compound 0.01 µM
[27] = second compound 0.01 µM, first compound 0.00316 µM
[28] = second compound 0.01 µM, first compound 0.01 µM
[29] = second compound 0.0316 µM, first compound 0.00316 µM
[30] = second compound 0.0316 µM, first compound 0.01 µM
[31] = second compound 0.1 µM, first compound 0.00316 µM
[32] = second compound 0.1 µM, first compound 0.01 µM
[33] = second compound 0.316 µM, first compound 0.00316 µM
[34] = second compound 0.316 µM, first compound 0.01 µM
[35] = second compound 1 µM, first compound 0.00316 µM
[36] = second compound 1 µM, first compound 0.01 µM

**Q.** What does the source list for `CC(C)NCC(C(=O)N1CCN(c2ncnc3c2C(C)CC3O)CC1)c1ccc(Cl)cc1` (stereo unspecified) + CC(Nc1ccc2c(c1)OCCn1cc(N3C(=O)OCC3C(F)F)nc1-2)C(N)=O?
**A.** IC50 (second compound 0.00316 µM): 7030 nM; IC50 (second compound 0.01 µM): 6950 nM; IC50 (second compound 0.0316 µM): 5100 nM; IC50 (second compound 0.1 µM): 4310 nM; IC50 (second compound 0.316 µM): 2690 nM; IC50 (second compound 1 µM): 1920 nM; viability, T/C [1]: 95.8%; viability, T/C [2]: 94.6%; viability, T/C [3]: 99.3%; viability, T/C [4]: 86.6%; viability, T/C (second compound 0.00316 µM, first compound 3.16 µM): 67.1%; viability, T/C (second compound 0.00316 µM, first compound 10 µM): 42.5%; viability, T/C [5]: 87.5%; viability, T/C [6]: 93.1%; viability, T/C [7]: 81.8%; viability, T/C [8]: 81.6%; viability, T/C (second compound 0.01 µM, first compound 3.16 µM): 60.1%; viability, T/C (second compound 0.01 µM, first compound 10 µM): 45.2%; viability, T/C [9]: 86.6%; viability, T/C [10]: 84.1%; viability, T/C [11]: 72.7%; viability, T/C [12]: 71.4%; viability, T/C (second compound 0.0316 µM, first compound 3.16 µM): 56.8%; viability, T/C (second compound 0.0316 µM, first compound 10 µM): 39.9%; viability, T/C [13]: 71.6%; viability, T/C [14]: 72.8%; viability, T/C [15]: 67.7%; viability, T/C [16]: 63.5%; viability, T/C (second compound 0.1 µM, first compound 3.16 µM): 54.5%; viability, T/C (second compound 0.1 µM, first compound 10 µM): 38.2%; viability, T/C [17]: 66.2%; viability, T/C [18]: 63.7%; viability, T/C [19]: 59.7%; viability, T/C [20]: 61.6%; viability, T/C (second compound 0.316 µM, first compound 3.16 µM): 47.2%; viability, T/C (second compound 0.316 µM, first compound 10 µM): 30.8%; viability, T/C [21]: 64%; viability, T/C [22]: 61.3%; viability, T/C [23]: 58.9%; viability, T/C [24]: 52.9%; viability, T/C (second compound 1 µM, first compound 3.16 µM): 48.3%; viability, T/C (second compound 1 µM, first compound 10 µM): 34.9%

**Q.** Which IC50 (second compound 0.00316 µM) does the source give for `CCN1CCN(Cc2ccc(Nc3ncc(F)c(-c4cc(F)c5nc(C)n(C(C)C)c5c4)n3)nc2)CC1` + CC(Nc1ccc2c(c1)OCCn1cc(N3C(=O)OCC3C(F)F)nc1-2)C(N)=O here?
**A.** 131 nM

**Q.** What about the IC50 (second compound 0.01 µM) of the same molecule?
**A.** 79.2 nM

**Q.** And the IC50 (second compound 0.0316 µM)?
**A.** 53.2 nM

**Q.** And the IC50 (second compound 0.1 µM)?
**A.** 24.4 nM

**Q.** And the IC50 (second compound 0.316 µM)?
**A.** 21.4 nM

**Q.** What about the IC50 (second compound 1 µM) of the same molecule?
**A.** 20 nM

**Q.** What about the viability, T/C [25] of the same molecule?
**A.** 90.8%

**Q.** What about the viability, T/C [26] of the same molecule?
**A.** 103%

**Q.** What about the viability, T/C [1] of the same molecule?
**A.** 76%

**Q.** What about the viability, T/C [2] of the same molecule?
**A.** 54.5%

**Q.** And the viability, T/C [3]?
**A.** 41.9%

**Q.** And the viability, T/C [4]?
**A.** 44.9%

**Q.** What about the viability, T/C [27] of the same molecule?
**A.** 92.7%

**Q.** What about the viability, T/C [28] of the same molecule?
**A.** 96.3%

**Q.** What about the viability, T/C [5] of the same molecule?
**A.** 65.7%

**Q.** What about the viability, T/C [6] of the same molecule?
**A.** 50.1%

**Q.** And the viability, T/C [7]?
**A.** 40.6%

**Q.** And the viability, T/C [8]?
**A.** 47%

**Q.** What about the viability, T/C [29] of the same molecule?
**A.** 80.2%

**Q.** What about the viability, T/C [30] of the same molecule?
**A.** 84.3%

**Q.** What about the viability, T/C [9] of the same molecule?
**A.** 57.4%

**Q.** And the viability, T/C [10]?
**A.** 42.6%

**Q.** And the viability, T/C [11]?
**A.** 35%

**Q.** And the viability, T/C [12]?
**A.** 45.5%

**Q.** What about the viability, T/C [31] of the same molecule?
**A.** 69.5%

**Q.** What about the viability, T/C [32] of the same molecule?
**A.** 70.4%

**Q.** What about the viability, T/C [13] of the same molecule?
**A.** 44.2%

**Q.** What about the viability, T/C [14] of the same molecule?
**A.** 37.1%

**Q.** What about the viability, T/C [15] of the same molecule?
**A.** 33.3%

**Q.** What about the viability, T/C [16] of the same molecule?
**A.** 43.8%

**Q.** What about the viability, T/C [33] of the same molecule?
**A.** 63.4%

**Q.** What about the viability, T/C [34] of the same molecule?
**A.** 62.8%

**Q.** What about the viability, T/C [17] of the same molecule?
**A.** 43.4%

**Q.** What about the viability, T/C [18] of the same molecule?
**A.** 36.5%

**Q.** What about the viability, T/C [19] of the same molecule?
**A.** 35.4%

**Q.** And the viability, T/C [20]?
**A.** 43.5%

**Q.** And the viability, T/C [35]?
**A.** 60.1%

**Q.** What about the viability, T/C [36] of the same molecule?
**A.** 64.8%

**Q.** What about the viability, T/C [21] of the same molecule?
**A.** 41.7%

**Q.** What about the viability, T/C [22] of the same molecule?
**A.** 34.5%

**Q.** What about the viability, T/C [23] of the same molecule?
**A.** 34.4%

**Q.** What about the viability, T/C [24] of the same molecule?
**A.** 39.1%

**Q.** For `Cn1ncnc1[C@H]1c2n[nH]c(=O)c3cc(F)cc(c23)N[C@@H]1c1ccc(F)cc1` + CC(Nc1ccc2c(c1)OCCn1cc(N3C(=O)OCC3C(F)F)nc1-2)C(N)=O, which IC50 (second compound 0.00316 µM) is on record?
**A.** > 100 nM

**Q.** And the IC50 (second compound 0.01 µM)?
**A.** > 100 nM

**Q.** What about the IC50 (second compound 0.0316 µM) of the same molecule?
**A.** > 100 nM

**Q.** And the IC50 (second compound 0.1 µM)?
**A.** 74 nM

**Q.** And the IC50 (second compound 0.316 µM)?
**A.** 47.1 nM

**Q.** What about the IC50 (second compound 1 µM) of the same molecule?
**A.** 17.6 nM

**Q.** And the viability, T/C (second compound 0.00316 µM, first compound 0.000316 µM)?
**A.** 99.1%

**Q.** And the viability, T/C (second compound 0.00316 µM, first compound 0.001 µM)?
**A.** 93.9%

**Q.** And the viability, T/C [25]?
**A.** 97.8%

**Q.** And the viability, T/C [26]?
**A.** 87.8%

**Q.** What about the viability, T/C [1] of the same molecule?
**A.** 82.4%

**Q.** What about the viability, T/C [2] of the same molecule?
**A.** 74.5%

**Q.** What about the viability, T/C (second compound 0.01 µM, first compound 0.000316 µM) of the same molecule?
**A.** 90.7%

**Q.** What about the viability, T/C (second compound 0.01 µM, first compound 0.001 µM) of the same molecule?
**A.** 95%

**Q.** And the viability, T/C [27]?
**A.** 81.8%

**Q.** And the viability, T/C [28]?
**A.** 84.4%

**Q.** What about the viability, T/C [5] of the same molecule?
**A.** 78.2%

**Q.** What about the viability, T/C [6] of the same molecule?
**A.** 78.3%

**Q.** What about the viability, T/C (second compound 0.0316 µM, first compound 0.000316 µM) of the same molecule?
**A.** 78.1%

**Q.** What about the viability, T/C (second compound 0.0316 µM, first compound 0.001 µM) of the same molecule?
**A.** 86.7%

**Q.** What about the viability, T/C [29] of the same molecule?
**A.** 75.4%

**Q.** What about the viability, T/C [30] of the same molecule?
**A.** 73.5%

**Q.** What about the viability, T/C [9] of the same molecule?
**A.** 63.7%

**Q.** What about the viability, T/C [10] of the same molecule?
**A.** 58.9%

**Q.** And the viability, T/C (second compound 0.1 µM, first compound 0.000316 µM)?
**A.** 70.8%

**Q.** What about the viability, T/C (second compound 0.1 µM, first compound 0.001 µM) of the same molecule?
**A.** 69.7%

**Q.** And the viability, T/C [31]?
**A.** 65%

**Q.** What about the viability, T/C [32] of the same molecule?
**A.** 62.4%

**Q.** What about the viability, T/C [13] of the same molecule?
**A.** 50.5%

**Q.** And the viability, T/C [14]?
**A.** 50.1%

**Q.** What about the viability, T/C (second compound 0.316 µM, first compound 0.000316 µM) of the same molecule?
**A.** 62.7%

**Q.** What about the viability, T/C (second compound 0.316 µM, first compound 0.001 µM) of the same molecule?
**A.** 64.3%

**Q.** What about the viability, T/C [33] of the same molecule?
**A.** 59.4%

**Q.** What about the viability, T/C [34] of the same molecule?
**A.** 56.9%

**Q.** And the viability, T/C [17]?
**A.** 49.4%

**Q.** And the viability, T/C [18]?
**A.** 47.7%

**Q.** What about the viability, T/C (second compound 1 µM, first compound 0.000316 µM) of the same molecule?
**A.** 63.2%

**Q.** And the viability, T/C (second compound 1 µM, first compound 0.001 µM)?
**A.** 58%

**Q.** And the viability, T/C [35]?
**A.** 53.9%

**Q.** And the viability, T/C [36]?
**A.** 51.6%

**Q.** And the viability, T/C [21]?
**A.** 50%

**Q.** What about the viability, T/C [22] of the same molecule?
**A.** 45.4%
